Source: patent publication US20260285830A1, “CRYSTALLINE METHIONINE ADENOSYLTRANSFERASE 2a (MAT2A) INHIBITOR AND USES THEREOF” (Insilico Medicine IP Limited, priority 2023, published 2026)
Structures can show the parent of a compound that is named as a salt. Blank lines part the entries; values can stand above or below the compound they belong to.

What was measured:
[1] = Pharmacokinetics in male Sprague Dawley rats, intravenous injection; format: in vivo; settings: rat, plasma, 1 mg/kg; male SD rats, n=3, intravenous injection, 0.2 mg/mL, 5 mL/kg
Experimental: Test compounds was dissolved in 5% DMSO+95% (10% HP-β-CD in Saline) to a concentration of 0.2 mg/mL and given to SD rats (Male, n=3) by intravenous injection (5 mL/kg). Blood samples were collected at 0.083 h, 0.25, 0.5, 1, 2, 4, 8, and 24 h after injection (anticoagulant:K2-EDTA). These tubes were kept in an ice bath prior to centrifugation at approximately 6800 g for 6 minutes at approximately 5° C. Samples were analyzed for the presence of the test compound with an TQ5500 mass spectrometer (AB Sciex) coupled to an ACQUITY UPLC BEH C18 (1.7 μm, 2.1 mm×50 mm) HPLC column. Gradient elution was applied consisting of ultrapure water containing 0.1% formic acid and acetonitrile containing 0.1% formic acid. Standard set of parameters including Area Under the Curve (AUC (0-t) and […]), elimination half-live (T1/2), maximum plasma concentration (Cmax), time to reach maximum plasma concentration (Tmax) will be calculated using non-compartmental analysis modules in Phoenix WinNonlin 7.0 (Pharsight, USA).

[2] = test system: HCT116 MTAP−/−; assay: Inhibition of cellular proliferation (Cell Titer Glo), HCT116 MTAP-/-; format: cell-based; settings: Homo sapiens, HCT-116, 120 h, 5 days treatment
Experimental: (§1) Test compound impact on cancer cell growth was assessed by treating cancer cells with compound for 5 days and then measuring proliferation using an ATP-based cell proliferation readout (Cell Titer Glo, Promega Corporation).
(§2) In a typical assay an isogenic pair of HCT116 human colon carcinoma cell lines which vary only in MTAP deletion status (HCT116 MTAP+/+ and HCT116 MTAP−/−) were plated in 96-well dishes at appropriate cell density. Following 24 hours, cells were then treated with the candidate MAT2A inhibitor. Prior to addition to cells, the compound was first serially diluted in DMSO, typically as a 3-fold serial dilution with 9 dose points.
(§3) Compound was then transferred to a working stock plate in cell culture media by adding 3 μl of compound in DMSO to 297 μl of cell culture media. […]
(§4) To measure inhibition of cellular proliferation, cells were allowed to equilibrate to room temperature for 30 minutes, and were then treated with 40 μl of Cell Titer Glo reagent. […] Luminescent signal of the Cell Titer Glo reagent was then measured using a plate-based luminometer and normalized via an ATP standard curve. This luminescence measure was converted to a proliferation index by subtracting from each datapoint the ATP luminescence measured from a control cell plate that was measured at the time of compound treatment. […]

[3] = test system: HCT116 MTAP+/+; assay: Inhibition of cellular proliferation (Cell Titer Glo), HCT116 WT (MTAP+/+); format: cell-based; settings: Homo sapiens, HCT-116, 120 h, 5 days treatment
Experimental: as §1, §2, §3, §4

[4] = Hygroscopicity evaluation (DVS); format: physicochemical; settings: for hygroscopicity (in words): DVS at 25 °C, water uptake up to 80% RH; for water uptake up to 80% RH: DVS isotherm at 25 °C between 0% RH and 95% RH
Experimental: Compound 1 Freebase Type A/B/C, Compound 1 maleate salt Type A, and Compound 1 citrate salt Type A were evaluated for hygroscopicity. DVS isotherm plots were collected at 25 ? between 0% RH and 95% RH.

[5] = Stability of 1 mg capsules (total impurity); format: physicochemical; settings: 1 mg capsules in aluminum blister foils
Experimental: Compound 1 freebase Type A or Compound 1 maleate salt Type A was sieved with 40 mesh sieves, followed by mixing with the same amount of diluent, disintegrant and lubricant to prepare 1000 capsules. The strength of these capsules is 1 mg, and the capsules are packaged in aluminum blister foils. The stability of 1 mg capsules was investigated at 40° C./75% RH and 60° C., and the results were in Table 26.

[6] = Kinetic solubility evaluation; format: physicochemical; settings: H2O, SGF and FaSSIF, 37 °C, solid loading ~10 mg/mL (calculated as freebase)
Experimental: Kinetic solubility of Compound 1 Freebase Type A, Compound 1 maleate salt Type A, and Compound 1 citrate salt Type A were measured in water, SGF (Simulated Gastric Fluid), FaSSIF (Fasted State Simulated Intestinal Fluid) and FeSSIF (Fed State Simulated Intestinal Fluid) at 37 ? with solid loading of ~10 mg/mL (calculated as freebase). The results are presented in FIG. 59A, FIG. 59B, FIG. 59C, and FIG. 59D.

- clearance [1]: 0.17 mL/min/kg
- IC50 [2]: 0.198 µM
- IC50 [3]: 21 µM
- hygroscopicity (in words) [4]: slightly hygroscopic
- water uptake up to 80% RH [4]: ~ 0.3%
- Total impurity ([5]; 40° C./75% RH, 0 d, listed as Free form Type A): 0.21%
- Total impurity ([5]; 40° C./75% RH, 10 d, listed as Free form Type A): 0.95%
- Total impurity ([5]; 60° C., 0 d, listed as Free form Type A): 0.21%
- Total impurity ([5]; 60° C., 5 d, listed as Free form Type A): 4.4%
- Total impurity ([5]; 60° C., 10 d): 8.04%
Compound: C#CCNc1nc(=O)n(-c2cccnc2C)c2cc(C(F)(F)F)cc(OC)c12 [Compound 1 Freebase Type A, 5-methoxy-1-(2-methylpyridin-3-yl)-4-(prop-2-yn-1-ylamino)-7-(trifluoromethyl) quinazolin-2 (1H)-one]

- water uptake up to 80% RH [4]: ~ 11.6%
Compound: C#CCNc1nc(=O)n(-c2cccnc2C)c2cc(C(F)(F)F)cc(OC)c12 [Compound 1 Freebase Type B, 5-methoxy-1-(2-methylpyridin-3-yl)-4-(prop-2-yn-1-ylamino)-7-(trifluoromethyl) quinazolin-2 (1H)-one]

- water uptake up to 80% RH [4]: ~ 6.7%
Compound: C#CCNc1nc(=O)n(-c2cccnc2C)c2cc(C(F)(F)F)cc(OC)c12 [Compound 1 Freebase Type C, 5-methoxy-1-(2-methylpyridin-3-yl)-4-(prop-2-yn-1-ylamino)-7-(trifluoromethyl) quinazolin-2 (1H)-one]

- hygroscopicity (in words) [4]: slightly hygroscopic
- water uptake up to 80% RH [4]: 1.6%
- kinetic solubility compared with Compound 1 Freebase Type A [6]: improved solubility
Compound: C#CCNc1nc(=O)n(-c2cccnc2C)c2cc(C(F)(F)F)cc(OC)c12 [Compound 1 citrate salt Type A, 5-methoxy-1-(2-methylpyridin-3-yl)-4-(prop-2-yn-1-ylamino)-7-(trifluoromethyl) quinazolin-2 (1H)-one]

- hygroscopicity (in words) [4]: non-hygroscopic
- water uptake up to 80% RH [4]: ~ 0.07%
- kinetic solubility compared with Compound 1 Freebase Type A [6]: improved solubility
- kinetic solubility compared with Compound 1 citrate salt Type A [6]: higher solubility
- Total impurity ([5]; 40° C./75% RH, 0 d, listed as Maleate Type A): 0.10%
- Total impurity ([5]; 40° C./75% RH, 10 d, listed as Maleate Type A): 2.0%
- Total impurity ([5]; 60° C., 0 d, listed as Maleate Type A): 0.10%
- Total impurity ([5]; 60° C., 5 d, listed as Maleate Type A): 12.6%
Compound: C#CCNc1nc(=O)n(-c2cccnc2C)c2cc(C(F)(F)F)cc(OC)c12 [Compound 1 maleate salt Type A, 5-methoxy-1-(2-methylpyridin-3-yl)-4-(prop-2-yn-1-ylamino)-7-(trifluoromethyl) quinazolin-2 (1H)-one]
